Values quoted from earlier work as cited in patent US12011508B2, “Methods and devices for reducing vascular smooth muscle cell proliferation” (Board of Supervisors of Louisiana State University and …, priority 2018, dated 2024).

water solubility: practically insoluble in water
Structure (SMILES): O=c1c(O)c(-c2ccc(O)c(O)c2)oc2cc(O)cc(O)c12 [QUER, 2-(3,4-dihydroxyphenyl)-3,5,7-trihydroxy-4H-1-benzopyran-4-one]
